Experimental data from ChEMBL document CHEMBL1201862, “PubChem BioAssay data set” (2004).
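Method: 48-hour compound exposure of cells in 96-well plates, five concentrations, linear interpolation of endpoints. GI50 is the concentration that inhibits growth by half.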 Active and inactive are the calls of the source. Rule as the data show it: active = GI50 up to about 1.1 µM and inactive = higher.

How the values were obtained:
Assay in all cases: inhibition of tumour cell growth, NCI panel, 48 h
[1] = system: 786-0
[2] = system: A549
[3] = system: ACHN
[4] = system: BT-549
[5] = system: CAKI-1
[6] = system: CCRF-CEM
[7] = system: COLO 205
[8] = system: DU-145
[9] = system: EKVX
[10] = system: HCT-116
[11] = system: HCT-15
[12] = system: HOP-92
[13] = system: HT-29
[14] = system: Hs-578T
[15] = system: IGROV-1
[16] = system: K562
[17] = system: KM12
[18] = system: LOX IMVI
[19] = system: M14
[20] = system: MCF7
[21] = system: MDA-MB-231
[22] = system: MDA-MB-435
[23] = system: MDA-N
[24] = system: MOLT-4
[25] = system: Malme-3M
[26] = system: NCI-H226
[27] = system: NCI-H23
[28] = system: NCI-H460
[29] = system: NCI-H522
[30] = system: NCI/ADR-RES
[31] = system: OVCAR-3
[32] = system: OVCAR-4
[33] = system: OVCAR-5
[34] = system: OVCAR-8
[35] = system: PC-3
[36] = system: RXF 393
[37] = system: SF-268
[38] = system: SF-295
[39] = system: SF-539
[40] = system: SK-MEL-28
[41] = system: SK-MEL-2
[42] = system: SK-MEL-5
[43] = system: SK-OV-3
[44] = system: SN12C
[45] = system: SNB-19
[46] = system: SNB-75
[47] = system: SR
[48] = system: SW-620
[49] = system: TK-10
[50] = system: U-251
[51] = system: UACC-257
[52] = system: UACC-62
[53] = system: UO-31
[54] = system: A498
[55] = system: HCC 2998
[56] = system: HOP-62
[57] = system: RPMI-8226
[58] = system: T47D
[59] = system: HL-60

Compound: COC(=O)Cc1c(C(=O)CC(C)(C)n2cnc(CCN3C(=O)CCC3=O)c2)[nH]c2ccccc12
- GI50 [1]: > 100 µM (inactive)
- GI50 [2]: > 100 µM (inactive)
- GI50 [3]: > 100 µM (inactive)
- GI50 [4]: > 100 µM (inactive)
- GI50 [5]: > 100 µM (inactive)
- GI50 [6]: > 100 µM (inactive)
- GI50 [7]: > 100 µM (inactive)
- GI50 [8]: > 100 µM (inactive)
- GI50 [9]: > 100 µM (inactive)
- GI50 [10]: > 100 µM (inactive)
- GI50 [11]: > 100 µM
- GI50 [12]: 15 µM (inactive)
- GI50 [13]: > 100 µM (inactive)
- GI50 [14]: > 100 µM (inactive)
- GI50 [15]: 89.3 µM (inactive)
- GI50 [16]: > 100 µM (inactive)
- GI50 [17]: > 100 µM (inactive)
- GI50 [18]: > 100 µM (inactive)
- GI50 [19]: > 100 µM (inactive)
- GI50 [20]: > 100 µM (inactive)
- GI50 [21]: > 100 µM (inactive)
- GI50 [22]: > 100 µM (inactive)
- GI50 [23]: > 100 µM (inactive)
- GI50 [24]: > 100 µM (inactive)
- GI50 [25]: > 100 µM (inactive)
- GI50 [26]: > 100 µM (inactive)
- GI50 [27]: > 100 µM (inactive)
- GI50 [28]: > 100 µM (inactive)
- GI50 [29]: 32.4 µM (inactive)
- GI50 [30]: > 100 µM (inactive)
- GI50 [31]: > 100 µM (inactive)
- GI50 [32]: > 100 µM (inactive)
- GI50 [33]: > 100 µM (inactive)
- GI50 [34]: > 100 µM (inactive)
- GI50 [35]: > 100 µM (inactive)
- GI50 [36]: 15.4 µM (inactive)
- GI50 [37]: > 100 µM (inactive)
- GI50 [38]: > 100 µM (inactive)
- GI50 [39]: > 100 µM (inactive)
- GI50 [40]: > 100 µM (inactive)
- GI50 [41]: > 100 µM (inactive)
- GI50 [42]: > 100 µM (inactive)
- GI50 [43]: > 100 µM (inactive)
- GI50 [44]: > 100 µM (inactive)
- GI50 [45]: > 100 µM (inactive)
- GI50 [46]: 27 µM (inactive)
- GI50 [47]: 34.5 µM (inactive)
- GI50 [48]: > 100 µM (inactive)
- GI50 [49]: > 100 µM (inactive)
- GI50 [50]: > 100 µM (inactive)
- GI50 [51]: > 100 µM (inactive)
- GI50 [52]: > 100 µM (inactive)
- GI50 [53]: 37.5 µM (inactive)

Compound: N#CC1C(=O)Nc2sc(C(=O)c3ccc(Br)cc3)c(N)c2C12CCCCC2 (configuration not stated)
- GI50 [1]: 31.4 µM (inactive)
- GI50 [54]: 20.1 µM (inactive)
- GI50 [2]: 18.1 µM (inactive)
- GI50 [3]: 35.6 µM (inactive)
- GI50 [4]: 27.9 µM (inactive)
- GI50 [5]: 27.9 µM (inactive)
- GI50 [6]: 29 µM (inactive)
- GI50 [7]: 13.7 µM (inactive)
- GI50 [8]: 23.8 µM (inactive)
- GI50 [9]: 17.7 µM (inactive)
- GI50 [55]: 22.5 µM (inactive)
- GI50 [10]: 15.8 µM (inactive)
- GI50 [11]: 16 µM
- GI50 [56]: 38.5 µM (inactive)
- GI50 [13]: 33.4 µM (inactive)
- GI50 [15]: 20.2 µM (inactive)
- GI50 [16]: 23.2 µM (inactive)
- GI50 [17]: 13.4 µM (inactive)
- GI50 [18]: 24.1 µM (inactive)
- GI50 [19]: 13.3 µM (inactive)
- GI50 [20]: 16.5 µM (inactive)
- GI50 [21]: 23 µM (inactive)
- GI50 [22]: 18.9 µM (inactive)
- GI50 [23]: 17 µM (inactive)
- GI50 [24]: 18.5 µM (inactive)
- GI50 [25]: 26.1 µM (inactive)
- GI50 [26]: 7.8 µM (inactive)
- GI50 [27]: 25 µM (inactive)
- GI50 [28]: 28.2 µM (inactive)
- GI50 [29]: 18.3 µM (inactive)
- GI50 [30]: 24.9 µM (inactive)
- GI50 [31]: 9.66 µM (inactive)
- GI50 [32]: 18 µM (inactive)
- GI50 [33]: 40.5 µM (inactive)
- GI50 [34]: 39.8 µM (inactive)
- GI50 [35]: 10.4 µM (inactive)
- GI50 [57]: 19.9 µM (inactive)
- GI50 [36]: 7.96 µM (inactive)
- GI50 [37]: 22.7 µM (inactive)
- GI50 [38]: 30.5 µM (inactive)
- GI50 [39]: 17.2 µM (inactive)
- GI50 [40]: 16 µM (inactive)
- GI50 [41]: 14.2 µM (inactive)
- GI50 [42]: 14.6 µM (inactive)
- GI50 [43]: 46.3 µM (inactive)
- GI50 [44]: 27.9 µM (inactive)
- GI50 [45]: 37.9 µM (inactive)
- GI50 [46]: 33.1 µM (inactive)
- GI50 [47]: 7.96 µM (inactive)
- GI50 [48]: 16.6 µM (inactive)
- GI50 [58]: 12.3 µM (inactive)
- GI50 [49]: 33.2 µM (inactive)
- GI50 [50]: 25.1 µM (inactive)
- GI50 [51]: 23.6 µM (inactive)
- GI50 [52]: 18.3 µM (inactive)
- GI50 [53]: 16.8 µM (inactive)

Compound: CCOC(=O)/C(=C\NC(C)(C)C)c1nc2ccccc2[nH]1
- GI50 [1]: 27.1 µM (inactive)
- GI50 [54]: 25.1 µM (inactive)
- GI50 [2]: 29.4 µM (inactive)
- GI50 [3]: 20.4 µM (inactive)
- GI50 [4]: 27.9 µM (inactive)
- GI50 [5]: 29.2 µM (inactive)
- GI50 [6]: 17.7 µM (inactive)
- GI50 [7]: 16 µM (inactive)
- GI50 [8]: 29.9 µM (inactive)
- GI50 [9]: 12.2 µM (inactive)
- GI50 [10]: 29.5 µM (inactive)
- GI50 [11]: 34.2 µM
- GI50 [59]: 13.2 µM (inactive)
- GI50 [56]: 22.4 µM (inactive)
- GI50 [12]: 25.2 µM (inactive)
- GI50 [13]: 17.9 µM (inactive)
- GI50 [14]: 19.6 µM (inactive)
- GI50 [15]: 22 µM (inactive)
- GI50 [17]: 19.9 µM (inactive)
- GI50 [18]: 21.9 µM (inactive)
- GI50 [19]: 20.1 µM (inactive)
- GI50 [20]: 18.6 µM (inactive)
- GI50 [22]: 20 µM (inactive)
- GI50 [23]: 22.9 µM (inactive)
- GI50 [25]: 20.6 µM (inactive)
- GI50 [26]: 22.9 µM (inactive)
- GI50 [27]: 17.7 µM (inactive)
- GI50 [28]: 17.7 µM (inactive)
- GI50 [29]: 20.2 µM (inactive)
- GI50 [30]: 32 µM (inactive)
- GI50 [31]: 17.5 µM (inactive)
- GI50 [32]: 24.5 µM (inactive)
- GI50 [33]: 21.5 µM (inactive)
- GI50 [34]: 26.1 µM (inactive)
- GI50 [57]: 17.2 µM (inactive)
- GI50 [36]: 23.5 µM (inactive)
- GI50 [37]: 23.7 µM (inactive)
- GI50 [38]: 20.2 µM (inactive)
- GI50 [39]: 16.8 µM (inactive)
- GI50 [40]: 16.4 µM (inactive)
- GI50 [42]: 12.9 µM (inactive)
- GI50 [43]: 30.1 µM (inactive)
- GI50 [44]: 28.3 µM (inactive)
- GI50 [45]: 39.3 µM (inactive)
- GI50 [46]: 23.7 µM (inactive)
- GI50 [47]: 12.7 µM (inactive)
- GI50 [48]: 25.3 µM (inactive)
- GI50 [49]: 14 µM (inactive)
- GI50 [51]: 18.5 µM (inactive)
- GI50 [52]: 16.3 µM (inactive)
- GI50 [53]: 0.466 µM (active)

Compound: NC(CCC(=O)NC(CSC(=O)N(O)c1ccc(Br)cc1)C(=O)NCC(=O)O)C(=O)O (configuration not stated)
- GI50 [1]: > 50 µM (inactive)
- GI50 [2]: > 50 µM (inactive)
- GI50 [3]: > 50 µM (inactive)
- GI50 [4]: > 50 µM (inactive)
- GI50 [5]: > 50 µM (inactive)
- GI50 [8]: > 50 µM (inactive)
- GI50 [9]: > 50 µM (inactive)
- GI50 [55]: > 50 µM (inactive)
- GI50 [11]: > 50 µM
- GI50 [56]: > 50 µM (inactive)
- GI50 [13]: > 50 µM (inactive)
- GI50 [14]: 27.4 µM (inactive)
- GI50 [16]: > 50 µM (inactive)
- GI50 [20]: > 50 µM (inactive)
- GI50 [21]: > 50 µM (inactive)
- GI50 [22]: > 50 µM (inactive)
- GI50 [23]: > 50 µM (inactive)
- GI50 [24]: > 50 µM (inactive)
- GI50 [27]: > 50 µM (inactive)
- GI50 [28]: > 50 µM (inactive)
- GI50 [30]: > 50 µM (inactive)
- GI50 [31]: > 50 µM (inactive)
- GI50 [32]: > 50 µM (inactive)
- GI50 [33]: > 50 µM (inactive)
- GI50 [35]: > 50 µM (inactive)
- GI50 [36]: > 50 µM (inactive)
- GI50 [37]: > 50 µM (inactive)
- GI50 [38]: > 50 µM (inactive)
- GI50 [39]: > 50 µM (inactive)
- GI50 [40]: > 50 µM (inactive)
- GI50 [41]: > 50 µM (inactive)
- GI50 [43]: > 50 µM (inactive)
- GI50 [44]: > 50 µM (inactive)
- GI50 [48]: > 50 µM (inactive)
- GI50 [50]: > 50 µM (inactive)
- GI50 [51]: > 50 µM (inactive)
- GI50 [53]: > 50 µM (inactive)
